Assay results from patent US20060223747A1, “Therapeutic agent for soft tissue sarcoma” (Fujisawa Pharmaceutical Co. Ltd., priority 2003, published 2006).

Columns and labels:
[1] = system: SYT-SSX protein expressing cells (HS-SY-2, YaFuSS, SYO-1); experiment: In vitro antitumor activity against SYT-SSX protein expressing cells (summary statement); type: cell-based
Excerpt: In an attempt to solve the above-mentioned problems, the present inventors have considered that, in synovial sarcoma, formation of the aforementioned complex of SYT-SSX protein, a chromatin remodeling-associated protein and histone deacetylase (HDAC)-associated protein enhances histone deacetylase activity, which in turn has an effect on the canceration, development and/or proliferation, of synovial sarcoma, and have conducted intensive studies of the effect of histone deacetylase inhibition on various synovial sarcoma cell strains (HS-SY-2, YaFuSS, SYO-1) that express SYT-SSX protein. […]

[2] = system: SYO-1 synovial sarcoma cell strain (SYT-SSX protein expressing); experiment: Tumor volume after subcutaneous implantation of SYO-1 cells in nude mice; type: in vivo, BALB/C/nu/nu nude mice; conditions: for antitumor activity in vivo against SYT-SSX protein expressing cells: summary statement
Method: Inbred male (BALB/C/nu/nu) nude mice were supplied by Charles River Japan, Inc. The animals were all fed and handled according to the Animal Test Guideline, Animal Resources Division, Advanced Science Research Center, Okayama University. FK228 was administered after 10 days from subcutaneous implantation of 10^5 cells each of the SYO-1 cell strain. The tumor volume was assumed by measuring two diameters perpendicular to each other using calipers and from the following formula (tumor volume=⅙π [(d1×d2)^3/2] (wherein d1 and d2 are two perpendicular diameters)). The dose was evaluated by intravenously administering a dilute FK228 solution (50 μl, 10% HCO60 which is polyoxyethylene (60) hydrogenated castor oil, diluted with physiological saline) at 0 mg/kg, 1.6 mg/kg or 3.2 mg/kg to 20 animals, and as a control, a 3.2 mg/kg dilute FK228 solution was intravenously injected to 7 animals free of tumor implantation. The administration was performed 3 times every 4 days, the tumor volume was also measured every 4 days, as well as after completion of the administration.

[3] = system: HTB93 synovial sarcoma cell strain (SW982; not expressing SYT-SSX protein); experiment: MTT cell growth assay (survival rate), HTB93 synovial sarcoma cell strain; type: cell-based; conditions: for antitumor activity against synovial sarcoma cell strain not expressing SYT-SSX protein: summary statement, HTB93 (SW982)
Method: An SYT-SSX protein non-expressing synovial sarcoma cell line HTB93 (purchased from ATCC: American Type Culture Collection) was cultured in DMEM (Dulbecco's modified Eagle's medium) containing 10% (v/v) fetal bovine serum (FBS), 100 U/ml penicillin and 100 μg/ml streptomycin at 37° C. under 5% CO2 environment. These cells were plated and cultured for 24 hr, detached with 0.25% (w/v) trypsin and recovered. For cell growth ability, an MTT analysis kit (Colorimetric MTT) assay for cell survival and proliferation kit of CHEMICON International, Inc.) was used. Each cell strain was plated in a 96 well microtiter plate at 2×10^3 cell/well, and after culture for 24 hr, exposed to a 0.1% (v/v) dilute ethanol solution of FK228 at a concentration distribution of 0.001 nM, 0.01 nM, 0.1 nM, 0.5 nM, 1 nM, 5 nM, 10 nM, 50 nM and 100 nM, 0.1% (v/v) ethanol as a control and the medium alone as a blank. After exposure for 24 hr, 48 hr, 72 hr and 96 hr, each culture was passed through a 570 nm filter and the absorbance was measured. All were performed with n=4.
For the results, average values of the FK228 addition sample, control and blank were taken, and using numerical values obtained by subtracting a blank value from the value of the FK228 addition sample or control, a percentage corresponding to the ratio of the numerical value of the FK228 addition sample relative to that of the control was taken as survival rate (%).

[4] = system: histone deacetylase; conditions: reported in JP-B-7-64872; Experimental Cell Research (1998) 241, 126-133; cited from earlier work
[5] = system: HS-SY-2 synovial sarcoma cell strain (SYT-SSX protein expressing); experiment: MTT cell growth assay, HS-SY-2 synovial sarcoma cell strain; type: cell-based; conditions: HS-SY-2 cells; FK228 0.1-100 nM; exposure 24, 48, 96 hr; FIG. 1
Excerpt: (§1) An SYT-SSX protein expressing synovial sarcoma cell line HS-SY-2 (established and kindly provided by Dr. Hiroshi Sonobe, Department of Pathology, National Fukuyama Hospital), YaFuSS (established and kindly provided by Dr. Junya Toguchida, Department of Tissue Regeneration, Institute for Frontier Medical Sciences, Kyoto University) and SYO-1 (established and kindly provided by Dr. Akira Kawai, Department of Orthopedics, Faculty of Medicine, Okayama University (now Department of Orthopedics, National Cancer Center)) were cultured in DMEM (Dulbecco's modified Eagle's medium) containing 10% (v/v) fetal bovine serum (FBS), 100 U/ml penicillin and 100 μg/ml streptomycin at 37° C. under 5% CO2 environment. These cells were plated and cultured for 24 hr, detached with 0.25% (w/v) trypsin and recovered. For cell growth ability, an MTT analysis kit (Colorimetric (MTT) assay for cell survival and proliferation kit of CHEMICON International, Inc.) was used. Each cell strain was plated in a 96 well microtiter plate at 10^3 cell/well, and after culture for 24 hr, exposed to a 0.1% (v/v) dilute ethanol solution of FK228 at a concentration distribution of 0.1 nM, 0.2 nM, 1 nM, 50 nM and 100 nM, and 0.1% (v/v) ethanol (Et-OH 0.1% in FIG. 1) as a control. After exposure for 24 hr, 48 hr and 96 hr, each culture was passed through a 570 nm filter and the absorbance was measured. […]

[6] = system: YaFuSS synovial sarcoma cell strain (SYT-SSX protein expressing); experiment: MTT cell growth assay, YaFuSS synovial sarcoma cell strain; type: cell-based; conditions: YaFuSS cells; FK228 0.1-100 nM; exposure 24, 48, 96 hr; FIG. 2
Excerpt: as §1

[7] = system: SYO-1 synovial sarcoma cell strain (SYT-SSX protein expressing); experiment: MTT cell growth assay, SYO-1 synovial sarcoma cell strain; type: cell-based; conditions: SYO-1 cells; FK228 0.1-100 nM; exposure 24, 48, 96 hr; FIG. 3
Excerpt: as §1

Row | SMILES | antitumor activity in vitro against SYT-SSX protein expressing cells [1] | antitumor activity in vivo against SYT-SSX protein expressing cells [2] | antitumor activity against synovial sarcoma cell strain not expressing SYT-SSX protein [3] | in vivo antitumor effect (tumor volume) ([2]; SYO-1 subcutaneous implant, i.v. 1.6 or 3.2 mg/kg, 3 times every 4 days, FIG. 4) | histone deacetylase inhibition [4] | in vitro antitumor effect [5] | in vitro antitumor effect (survival rate) ([3]; HTB93 cells, FK228 0.001-100 nM, exposure 24, 48, 72, 96 hr, FIG. 5) | in vitro antitumor effect [6] | in vitro antitumor effect [7]
1 | CC(/C=C/C(=O)NO)=C\[C@@H](C)C(=O)c1ccc(N(C)C)cc1 [tricostatin A, Trichostatin A, reference compound] | potent antiturnor activity | potent antiturnor activity | potent antitumor activity | – | – | – | – | – | –
2 | C/C=C1\NC(=O)[C@H]2CSSCC/C=C/[C@H](CC(=O)N[C@H](C(C)C)C(=O)N2)OC(=O)[C@H](C(C)C)NC1=O [FK228] | potent antiturnor activity | potent antiturnor activity | potent antitumor activity | showed an in vivo antitumor effect | selectively inhibits histone deacetylase | showed an in vitro antitumor effect | showed an in vitro antitumor effect | showed an in vitro antitumor effect | showed an in vitro antitumor effect
3 | C/C=C1\NC(=O)C2CSSCC/C=C/C(CCNC(C(C)C)C(=O)N2)OC(=O)C(C(C)C)NC1=O (stereo not shown) [compound A] | – | – | – | – | selectively inhibits histone deacetylase | – | – | – | –
